Common to all, as to type: in vivo, human
Data set [1] in a line: Blood pressure in randomized crossover study, Type II diabetes mellitus with hypertension. How it is done: (§1) Subjects with hypertension requiring therapy were excluded from the study as one of the goals of the study was to measure the anti-inflammatory effects of an ACE inhibitor independently of its blood pressure lowering effects. Subjects on lipid lowering therapy (e.g., statin therapy) at the time of enrollment continued their therapy without change throughout the study. Written informed consent was obtained from all subjects. All subjects were evaluated at the time of enrollment. The subjects received nutritional counseling and were advised to record their weight and calorie counts weekly. A nutritionist was available for counseling throughout the study. Blood samples were drawn before and at the end of therapy at a similar time of day while subjects were fasting. […] After the initial 8 weeks of treatment, there was a 4 week washout period. The subjects then received in a crossover fashion the alternate pharmacological regimen. Allocation concealment was maintained until the end of the study. Pill counts were obtained at the end of the treatment period to determine compliance (13). Subjects were advised to self-administer half of the full dose during the initial 2 days of therapy, after which they were to take the full study dose at the same time each morning. The total study period was 22 weeks. […] Blood pressure was checked with at least three separate measurements that were taken approximately five minutes apart using an Omron sphygmomanometer.

The test system of data set [2] is glycosylated hemoglobin. Briefly: Glycosylated hemoglobin in the diabetic hypertensive crossover study.
A short description of data set [3]: Adverse events in the diabetic hypertensive crossover study (cough, angioedema, potassium/creatinine, hypotension).
Source text: as §1, with “subjects.” for “subjects. All subjects were evaluated at the time of enrollment. The subjects received nutritional counseling and were advised to record their weight and calorie counts weekly. A nutritionist was available for counseling throughout the study. Blood samples were drawn before and at the end of therapy at a similar time of day while subjects were fasting.”

Data set [4] relates to urinary albumin. Briefly: Proteinuria, 24 hour urine collection, standard chemical protein analysis. The following applies: versus pretreatment, in words (FIG. 1). As for the experimental part:
Upon collection of each urine sample, the urine was quickly analyzed, and protein analysis was performed via a standard chemical analysis (Quest Laboratory, Scranton, Pa.).

The nature of data set [5]: Brachial artery reactivity testing (BART), flow-mediated vasodilation, diabetic hypertensive subjects. From the text:
Briefly, the subjects were positioned in the supine position with the arm in a comfortable position for imaging the brachial artery. A blood pressure cuff was then placed on the forearm, after which a baseline rest image was acquired. The brachial artery was imaged above the antecubital fossa in the longitudinal plane, and a segment with clear anterior and posterior intimal interfaces between the lumen and vessel wall was selected for continuous 2D gray-scale imaging. Blood flow velocity was estimated by time-averaging the pulsed Doppler velocity signal obtained from a mid-artery sample volume. […] After cuff deflation, the longitudinal image of the artery was recorded continuously from 30 seconds before to 2 minutes after cuff deflation. […] The diameter of the brachial artery was measured from longitudinal images in which the lumen-intima interface was visualized on both the near (anterior) and far (posterior) walls. Once the image for analysis was chosen, the boundaries for diameter measurements were identified manually with electronic calipers (Medical Imaging Application Vascular Tools, Coralville, Iowa), and the average diameter was determined from at least 3 different diameter measurements determined along a segment of the vessel. Brachial artery diameter was measured at the same time in the cardiac cycle by use of electrocardiogram (ECG) gating during image acquisition. […]

Data set [6] deals with leptin. Briefly: Serum leptin enzyme immunoassay (EIA). How it is done:
(§2) An aliquot of each sample was then drawn, and an enzyme immunoassay (EIA; Cayman Chemical, Ann Arbor, Mich.) for serum adiponectin and leptin was performed on each sample in triplicate according to well-established protocols (45). A total of 50 μl of serum were used for the analysis. The levels of total serum adiponectin and leptin were determined on a plate reader at an optical density of 420 nm. No interference by quinapril or its metabolites was found in any of the assays.

The test system of data set [7] is adiponectin. Briefly: Serum adiponectin enzyme immunoassay (EIA). As for the experimental part:
as §2

Data set [8] in a line: HOMA-IR index of insulin resistance. From the text:
Without wishing to be bound by any particular theory, it was thought that insulin resistance can play an important role in hyperglycemia in type 2 diabetic subjects, and can eventually induce the development of diabetic microangiopathy (20). Indeed, to achieve glycemic control and prevent these complications, several oral hypoglycemic agents that improve insulin resistance, such as thiazolidinediones and biguanides, have been developed and are currently available clinically (21,22). Furthermore, insulin resistance is proposed to play important roles in the pathogenesis of cardiovascular diseases (23,24), the most common cause of death in diabetic subjects. Therefore, a clinical and epidemiological evaluation was undertaken with the subjects described in Example 1 in order to evaluate insulin resistance simply and accurately in the individual diabetic subjects with hypertension. Many investigators have studied simple surrogate indices of insulin resistance in comparison with the index assessed by euglycemic-hyperinsulinemic clamp (clamp-IR); for example, fasting plasma insulin (25), homeostasis model assessment (HOMA) of insulin resistance (HOMA-IR) (26), and the fasting glucose-to-insulin ratio (27). […]

Data set [9] has as its system LDL. The experiment in a line: LDL oxidation lag time, CuSO4 assay on LDL isolated from treated subjects. From the text:
Although, the mechanisms of this damage have yet to be clearly established and may involve the inactivation of nitric oxide (NO) by oxygen-derived free radicals such as superoxide (33), it is clear that this inflammatory response affects the gene expression of regulatory molecules, such as vascular cell adhesion molecule and tumor necrosis factor-alpha (34-36), which in turn promote foam cell formation. In this regard, a reduction in NO levels along with an increase in ox-LDL may function as immunomodulators of the atherosclerotic process (37) and, indeed, recent studies imply that ox-LDL stimulates an immunological response through the formation of autoantibodies, resulting in further damage to the endothelium and acceleration of the atherosclerotic process (38,39). This antibody response may represent a marker for the extent of atherosclerosis seen in individuals. […] The LDL was then oxidized to ox-LDL by an in vitro assay utilizing CuSO4 (52). The lag time indicating the susceptibility of the LDL to oxidize was measured using a spectrophotometer at […] (42). Values were performed in triplicate.

Data set [10] has as its system PAI-1. The experiment in a line: Serum soluble PAI-1 ELISA in subjects with metabolic syndrome. The following applies: after four weeks of therapy, quinapril 20 mg/day, alpha lipoic acid 300 mg/day, from baseline. How it is done: […] Blood was collected at these time periods, and serum levels of soluble PAI-1 and VCAM-1 were determined using an enzyme-linked immunosorbent assay (ELISA). Further, endothelial function in each of the subjects was also determined by flow mediated dilation (FMD) of the brachial artery, utilizing the high resolution ultrasound technique described herein above.
On the technique in general: An ELISA detects its analyte on a solid surface through an enzyme-linked reagent.

[11] abbreviates: diabetic hypertensive subjects, quinapril 40 mg/day, alpha lipoic acid 600 mg/day, 8 weeks.
The mark [12] stands for this setting: serum, diabetic hypertensive subjects.

Structures are written as SMILES.

As to `CCOC(=O)[C@H](CCc1ccccc1)N[C@@H](C)C(=O)N1Cc2ccccc2C[C@H]1C(=O)O` [Quinapril, quinapril], the “Diastolic BP” value in data set [1] (setting [11]) worked out at 77.9 ± 10.0 mmHg. Moreover, in data set [1] (diabetic hypertensive subjects, quinapril 40 mg/day, alpha lipoic acid 600 mg/day, 8 weeks, mean ± SD), the “Systolic BP” value worked out at 133.4 ± 11.7 mmHg. Moreover, in data set [1] (versus pretreatment, in words), the “change in systolic and diastolic blood pressure after the follow-up period” value was “significant reduction”. The “Glycosylated Hgb” value in data set [2] (setting [11]) was 7.6 ± 1.5%. The “change in glycosylated hemoglobin (Hgb)” value in [2] (from pretreatment and between the two treatment arms, in words) was “no significant change”. In addition, the “hypotension (systolic BP less than 100 mm Hg)” value in [3] (during the study) was “No subject”. Besides, the “rise in serum potassium or creatinine of greater than 20 percent” value in data set [3] (number of subjects affected) is 1 out of 40. For the same compound, the incidence of cough in [3] (quinapril 40 mg/day, alpha lipoic acid 600 mg/day) stood at 14%. For the same compound, the angioedema result in data set [3] (throughout the study) is reported as “No angioedema”. Moreover, in data set [4], the “ratio of urinary albumin to creatinine” value is reported as “reduced significantly” and the urinary albumin entry is listed as “reduced significantly”. Also, in [5] (at 24 weeks as printed), the “increase in flow mediated dilation of the brachial artery as compared to baseline” value is recorded as 59%. Besides, the “flow mediated dilation of the brachial artery” value in data set [5] (post-treatment, pretreatment 3.86±0.55 percent) worked out at 6.02±0.80%. In addition, the Leptin in [6] (setting [12]) is reported as 51% of % of pretreatment. The “serum levels of leptin” value in [6] (versus pretreatment, in words) is “significantly reduced”. Moreover, in data set [7] (over pretreatment, in words), the “serum levels of adiponectin” value is “significantly increased”. Also, the Adiponectin in [7] (setting [12]) is on record as 122% of % of pretreatment. Also, the serum HOMA-IR in data set [8] (end of treatment, pretreatment 3.01±0.33 U/ml) was determined as 1.83 ± 0.25. Also, the “reduction in HOMA-IR from pretreatment baseline” value in data set [8] (in vivo) came to 40%. Besides, in [9] (human, in vivo), the “increase of lag time of LDL oxidation from pretreatment” value is 23%. Besides, the “lag time of LDL oxidation, Post-treatment” value in data set [9] (post-treatment) worked out at 71.0 ± 13.9 s. The “reduction of serum PAI-1 levels” value in data set [10] stood at 22%.

The values above are taken from patent publication US20100173936A1 (priority 2008, published 2010).
